In US20250042886A1, “BIS(HETERO)ARYL THIOETHER OXADIAZINES AS FUNGICIDAL COMPOUNDS” (Bayer Aktiengesellschaft, priority 2021, published 2025) one finds chromatographic logP, pest or weed control and inhibition data, which are given here for 13 molecules.

Series [1] in a line: Measurement of Log P values by HPLC on reversed phase columns (EEC directive 79/831 Annex V.A8). Conditions: Table 1, compounds of formula (I); method [a]: LC-UV, acidic range, 0.1% formic acid in water and acetonitrile. Type of series: physicochemical.
Series [2] concerns Botrytis cinerea. Nature of the series: In vivo preventive test on Botrytis cinerea (grey mould). Conditions: 500 ppm of active ingredient, sprayed on young gherkin or cabbage plants 24 h before inoculation, evaluated 4 to 5 days after inoculation, read-out: efficacy. The essentials: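 Compounds in DMSO/acetone/Tween 80 were diluted in water and sprayed onto young gherkin or cabbage plants; controls got solvent only. After 24 h, leaves were sprayed with an aqueous Botrytis cinerea spore suspension.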

Series [3] relates to Sphaerotheca fuliginea. Nature of the series: In vivo preventive test on Sphaerotheca fuliginea (powdery mildew on cucurbits). Conditions: Podosphaera fuliginea, 192 h; 500 ppm of active ingredient, sprayed on young gherkin plants 24 h before inoculation; evaluated 8 days after inoculation; read-out: efficacy. How it is done:
B-3. […] The active ingredients were made soluble and homogenized in a mixture of Dimethyl sulfoxide/Acetone//Tween® 80 and then diluted in water to the desired concentration. The young plants of gherkin were treated by spraying the active ingredient prepared as described above. Control plants were treated only with an aqueous solution of Acetone/Dimethyl sulfoxide/Tween® 80. After 24 hours, the plants were contaminated by spraying the leaves with an aqueous suspension of Sphaerotheca fuliginea spores.

The test system of series [4] is Pyricularia oryzae. As to the kind of experiment: microbe, parasite or virus in culture. Type of series: cell-based. Conditions: 120 h; for inhibition at 20 ppm: read-out: efficacy (inhibition of fungal growth), 20 ppm of active ingredient, liquid culture, 5 days incubation; for inhibition at 50 µM: read-out: efficacy (inhibition of fungal growth), 50 μMol/l of active ingredient, liquid culture, 5 days incubation.

The test system of series [5] is Colletotrichum lindemuthianum. Nature of the series: Colletotrichum lindemuthianum in vitro cell test. Type of series: cell-based. Conditions: 144 h, liquid culture, 6 days incubation, read-out: efficacy (inhibition of fungal growth); for inhibition at 20 ppm: 20 ppm of active ingredient; for inhibition at 50 µM: 50 μMol/l of active ingredient. The essentials: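 C. lindemuthianum spores in liquid glucose–peptone–yeast extract medium were exposed to compounds dissolved in DMSO. After 6 days, mycelial growth was measured by absorbance, and inhibition was calculated against compound-free control wells.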

In series [6] the test system is Botrytis cinerea. As to the kind of experiment: Botrytis cinerea in vitro cell test. The class given is cell-based. Conditions: 144 h, liquid culture, 6 days incubation, read-out: efficacy (inhibition of fungal growth); for inhibition at 20 ppm: 20 ppm of active ingredient; for inhibition at 50 µM: 50 μMol/l of active ingredient. The essentials: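 Compounds from DMSO stocks added at a range of concentrations to a defined mineral-salt/sucrose liquid medium inoculated with B. cinerea spores. After 6 days' incubation, mycelium growth was read by absorbance; inhibition of germination and growth was calculated against fungicide-free control wells.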

In series [7] the test system is Colletotrichum lindemuthianum. Nature of the series: In vivo preventive test on Colletotrichum lindemuthianum (leaf spot on bean). Conditions: 168 h, 500 ppm of active ingredient, sprayed on young bean plants 24 h before inoculation, evaluated 7 days after inoculation, read-out: efficacy. As to the method: B-4. […] The active ingredients were made soluble and homogenized in a mixture of Dimethyl sulfoxide/Acetone//Tween® 80 and then diluted in water to the desired concentration. The young plants of bean were treated by spraying the active ingredient prepared as described above. Control plants were treated only with an aqueous solution of Acetone/Dimethyl sulfoxide/Tween® 80. After 24 hours, the plants were contaminated by spraying the leaves with an aqueous suspension of Colletotrichum lindemuthianum spores.

Series [8] deals with Pyrenophora teres. Nature of the series: Pyrenophora teres in vitro cell test. The class given is cell-based. Conditions: 144 h, liquid culture, 6 days incubation, read-out: efficacy (inhibition of fungal growth); for inhibition at 20 ppm: 20 ppm of active ingredient; for inhibition at 50 µM: 50 μMol/l of active ingredient. The procedure, abridged:
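Compounds in DMSO were added to P. teres spore suspensions in glucose/peptone/yeast-extract liquid medium, testing inhibition of spore germination and mycelium growth. After 6 days, mycelium growth was read by absorbance. Inhibition was calculated relative to fungicide-free control wells.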

The subject of series [9] is Septoria tritici. As to the kind of experiment: Septoria tritici in vitro cell test. The class given is cell-based. Conditions: Zymoseptoria tritici, 168 h; 20 ppm of active ingredient; liquid culture, 7 days incubation; read-out: efficacy (inhibition of fungal growth). As to the method: B-11. Septoria tritici In Vitro Cell Test • Solvent: DMSO • Culture medium: 1 g KH2PO4 (VWR), 1 g K2HPO4 (VWR), 0.5 g Urea (VWR), 3 g KNO3 (Prolabo), 10 g saccharose (VWR), 0.5 g MgSO4, 7H2O (Sigma), 0.07 g CaCl2, 2H2O (Prolabo), 0.2 mg MnSO4, H2O (Sigma), 0.6 mg CuSO4, 5H2O (Sigma), 7.9 mg ZnSO4, 7H2O (Sigma), 0.1 mg H3BO3 (Merck), 0.14 mg NaMoO4, 2H2O (Sigma), 2 mg thiamine (Sigma), 0.1 mg biotine (VWR), 4 mg FeSO4, 7H2O (Sigma), QSP 1 liter • Inoculum: spore suspension Fungicides were solubilized in DMSO and the solution used to prepare the required range of concentrations. […] A spore suspension of S. tritici was prepared and diluted to the desired spore density. Fungicides were evaluated for their ability to inhibit spore germination and mycelium growth in liquid culture assay. The compounds were added in the desired concentration to the culture medium with spores. […] Inhibition of fungal growth was determined by comparing the absorbance values in wells containing the fungicides with the absorbance in control wells without fungicides.

Series [10] has as its system Alternaria alternata. Nature of the series: Alternaria alternata in vitro cell test. Conditions: 120 h, liquid culture, 5 days incubation, read-out: efficacy (inhibition of fungal growth); for inhibition at 20 ppm: 20 ppm of active ingredient; for inhibition at 50 µM: 50 μMol/l of active ingredient. Type of series: cell-based. The procedure, abridged:
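Spores in glucose/mycological peptone/yeast extract liquid medium were exposed to DMSO-dissolved fungicides for 5 days. Inhibition of germination and mycelial growth was read spectrophotometrically, comparing absorbance against fungicide-free control wells.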

The subject of series [11] is Fusarium culmorum. Nature of the series: Fusarium culmorum in vitro cell test. Type of series: cell-based. Conditions: 120 h, liquid culture, 5 days incubation, read-out: efficacy (inhibition of fungal growth); for inhibition at 20 ppm: 20 ppm of active ingredient; for inhibition at 50 µM: 50 μMol/l of active ingredient. The procedure, abridged:
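Spores in liquid mineral-salts/saccharose medium exposed to compounds (DMSO ≤1% final) for 5 days. Mycelium growth measured spectrometrically, with inhibition derived from absorbance relative to fungicide-free control wells.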

Series [12] concerns Alternaria brassicae. Nature of the series: In vivo preventive test on Alternaria brassicae (leaf spot on radish or cabbage). Conditions: 500 ppm of active ingredient, sprayed on young radish or cabbage plants 24 h before inoculation, evaluated 3 to 4 days after inoculation, read-out: efficacy. The essentials:
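Young radish or cabbage plants sprayed preventively with compound formulated in DMSO/acetone/Tween 80 and diluted in water; vehicle-treated plants as controls. Leaves inoculated by spraying an aqueous Alternaria brassicae spore suspension 24 h after treatment.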

As a reminder, the chromatographic logP is a lipophilicity value derived from retention on a column. The low end stands for lower lipophilicity, the high end for higher lipophilicity. In series [1], `Clc1ccc(C[C@@H]2CON=C(c3cc(Cl)nnc3Sc3cccc(Br)c3)N2)c(Cl)c1` (racemic) [Compound I-005] displayed a chromatographic logP of 4.88. The pest or weed control at 500 ppm in series [2] fell in the range of 90 to 100%; in [3], 80 to 89%. Further, the inhibition at 20 ppm in [4], in [5] and in [6] was 90 to 100% in each case.

`Cc1ccc(C[C@H]2CON=C(c3nc(C)ncc3Sc3cccc(C(F)(F)F)c3)N2)c(C)c1` (racemic) [Compound I-007]: the chromatographic logP in series [1] is 5.21. Further, the pest or weed control at 500 ppm in series [2], in series [3] and in [7] was 90 to 100% throughout. Moreover, the inhibition at 20 ppm fell in the range of 70 to 79% in series [4]; 90 to 100% in series [5]; 90 to 100% in series [8]; 90 to 100% in series [6]; 80 to 89% in series [9].

As to `Clc1cccc(Sc2cnc(Cl)cc2C2=NOC[C@@H](Cc3ccc(Cl)cc3Cl)N2)c1` (racemic) [Compound I-008], the chromatographic logP in [1] was determined as 4.9. The inhibition at 20 ppm in series [10] is 80 to 89%; in [4] it was 90 to 100%; in series [5], 90 to 100%; in series [8] it was 90 to 100%; in series [6] it was 90 to 100%; in [11], 90 to 100%. Besides, the inhibition at 20 ppm in series [9] lay in the range of 90 to 100%.

The molecule `COc1cccc(Sc2cnc(C)nc2C2=NOC[C@H](Cc3ccc(C)cc3C)N2)c1` (racemic) [Compound I-009] displayed a chromatographic logP in series [1] of 4.67. The pest or weed control at 500 ppm in series [12] is 80 to 89%; in series [2], 80 to 89%; in series [7], 70 to 79%. Further, the inhibition at 20 ppm in [5] was in the range of 80 to 89%; in series [6], 90 to 100%; in series [9], 70 to 79%.

Take `Cc1cccc(Sc2cnc(Cl)cc2C2=NOC[C@@H](Cc3ccc(Cl)cc3Cl)N2)c1` (racemic) [Compound I-011]: in series [1], the chromatographic logP is 4.86. In addition, in series [2], the pest or weed control at 500 ppm is 90 to 100%. Moreover, the inhibition at 20 ppm lay within 70 to 79% in series [10]; 90 to 100% in series [4]; 90 to 100% in series [5]; 90 to 100% in [8]; 90 to 100% in series [6]; 90 to 100% in [11]. For the same molecule, the inhibition at 20 ppm in series [9] lay within 90 to 100%.

Molecule `COc1cccc(Sc2cnc3ccccc3c2C2=NOC[C@H](Cc3ccc(C)cc3C)N2)c1` (racemic) [Compound I-012] came in with a chromatographic logP in series [1] of 4.06. Also, the inhibition at 20 ppm in series [5] lay within 90 to 100%; in series [8], 90 to 100%; in series [6], 90 to 100%; in series [9], 70 to 79%.

Consider `FC(F)(F)c1cccc(Sc2nnc(Cl)cc2C2=NOC[C@H](Cc3ccc(Cl)cc3Cl)N2)c1` (racemic) [Compound I-016], for which the chromatographic logP in series [1] worked out at 4.86. In addition, the inhibition at 20 ppm in [4] fell in the range of 80 to 89%; in series [5], 90 to 100%; in series [8] it was 90 to 100%; in [6] it was 90 to 100%; in series [9], 70 to 79%.

In [1], `Cc1ccc(C[C@@H]2CON=C(c3cc(Cl)nnc3S(=O)(=O)c3ccc(C(F)(F)F)cc3)N2)c(C)c1` (racemic) [Compound I-018] showed a chromatographic logP of 4.28. The inhibition at 20 ppm in series [4] lay in the range of 90 to 100%; in series [5] it was 80 to 89%; in [9], 90 to 100%.

Consider `Cc1ccc(C[C@H]2CON=C(c3c(Sc4cccc(Cl)c4)cnc4ccccc34)N2)c(C)c1` (racemic) [Compound I-024], for which the chromatographic logP in series [1] is 4.46. Moreover, the inhibition at 20 ppm in series [10], in series [4], in series [5], in series [8], in series [6] and in [11] was 90 to 100% in each case. Also, the inhibition at 20 ppm in series [9] fell in the range of 90 to 100%.

In series [1], `FC(F)(F)c1ccc(Sc2nnc(Cl)cc2C2=NOC[C@@H](Cc3ccc(Br)cc3Cl)N2)cc1` (racemic) [Compound I-035] displayed a chromatographic logP of 5. Further, the figures for the pest or weed control at 500 ppm in series [2], in [3] and in series [7] were 90 to 100%, 80 to 89% and 90 to 100%, respectively.

Consider `Cc1ccc([C@H]2CON=C(c3c(Sc4cccc(Cl)c4F)nnc4ccccc34)N2)s1` (racemic) [Compound I-108], for which the chromatographic logP in [1] amounted to 3.68. For the same molecule, the pest or weed control at 500 ppm in series [12], in series [2] and in series [7] was 90 to 100% throughout. Moreover, the inhibition at 50 µM in [10], in [4], in series [5], in [8], in series [6] and in series [11] was 90 to 100% each time.

Turning to `Cc1ccc([C@H]2CON=C(c3c(Sc4cccc(C(F)(F)F)c4)nnc4ccccc34)N2)s1` (racemic) [Compound I-109], the chromatographic logP in series [1] was 3.81. Besides, the pest or weed control at 500 ppm in series [12], in [2] and in [7] was 90 to 100% each time. In addition, the inhibition at 50 µM in [10] lay within 90 to 100%; in series [4], 70 to 79%; in [5], 90 to 100%; in series [8], 90 to 100%; in series [6] it was 90 to 100%; in series [11], 80 to 89%.

In turn, `Cc1ccc([C@H]2CON=C(c3c(Sc4cccc(Cl)c4)nnc4ccccc34)N2)s1` (racemic) [Compound I-135] came in with a chromatographic logP in [1] of 3.61. Besides, the pest or weed control at 500 ppm in series [12], in [2] and in series [7] was 90 to 100% each time. Further, the inhibition at 50 µM in series [10], in series [4], in [5], in series [8], in series [6] and in series [11] was 90 to 100% in each case.
